Series [1] deals with asexual erythrocytic stages of transgenic NF54-luc P. falciparum. The experiment in a line: Luciferase-based viability screening for antiplasmodial activity. The following applies: 48 h. The series is classed as cell-based, Plasmodium falciparum. The protocol: For the luciferase-based viability assays, asexual erythrocytic stages of transgenic NF54-luc P. falciparum were used. These parasites constitutively express high luciferase levels. The parasites were cultured as described previously. Parasite cultures with parasitaemia of 0.5–1% were dispensed in triplicate into white 96-well flat-bottom plates (each well contains 250 µL) (NUNC, Roskilde, Denmark) and incubated in the presence of 3 µM test compounds for 48 h (37 °C, 90% N2, 5% CO2, and 5% O2). 0.01% DMSO was included in the untreated infected RBC cultures as negative control, since the compounds stock initially was diluted in DMSO and each treatment well also contained 0.01% DMSO. Subsequently, 100 µL RPMI1640 media was removed from each well and a 100 µL volume of the Bright-Glo® substrate solution was added to each well. The resultant cleavage product of the reaction, light, was measured using a […] luminometer (Thermo), to ascertain viable parasites. Untreated cultures were used as negative controls and to calculate the inhibition rate (0% inhibition of parasite growth). Experiments were performed in triplicate and were repeated as a whole at least twice. Blasticidin (Sigma-Aldrich, St. Louis, MO, USA), used for selection of transfected parasites, was included as a positive control on each plate and gave > 90% inhibition of parasite growth at concentration 2 µg/mL. […] For active compounds IC50 values were determined from dose–response curves. Calculation of parasite growth inhibition, of the IC50 values and statistical analysis were carried out using GraphPad Prism Version 6.0b (GraphPad Software, Inc. San Diego, CA).

A further series relates to HEK293T cells. The experiment in a line: Cytotoxicity assay on HEK293 cells (PrestoBlue viability). The following applies: cell viability, 48 h; mean of six determinations, range in brackets; read-out: IC50 [µM], HEK 293T. The series is classed as cell-based, human. The protocol:
HEK293T cells were seeded into a solid black flat bottom 96 well plate (2.5 × 10^4 cells/well) in 200 μL Dulbecco Modified Eagle Medium (DMEM) supplemented with 10% fetal bovine serum and 1% Pen/Strep (final concentration of 100 U/mL Penicillin and 100 μg/mL Streptomycin). Cells were incubated at 37 °C under 5% CO2. After 18 h the supernatant was removed and fresh DMEM containing serial dilutions of compounds was added. Compounds were solubilized in DMSO (final DMSO concentration in HEK293T culture was 0.5%.) Wells containing 0.5% DMSO served as a negative control. Plates were incubated for further 48 h at 37 °C under 5% CO2. To monitor cell viability the supernatant was removed and cells were incubated with 200 μL 10% PrestoBlue (Invitrogen) in PBS at 37 °C. After 30 min fluorescence (λex = 560 nm, λem = 590 nm) was measured in an EnVision multilable plate reader (Perkin Elmer, integration time 0.1 s/well). Data points were plotted into Graphpad Prism, normalized to the DMSO control and IC50 values were calculated using nonlinear regression.

The nature of series [2]: Kinetic solubility by laser nephelometry. The series is classed as physicochemical. The following applies: aqueous phosphate buffer pH 7.4, 1% DMSO, 25 °C, mean ± standard deviation. The procedure:
Kinetic solubility indicates the solubility of the most rapidly precipitating form. Kinetic solubilities of 1 and 4h were determined by laser nephelometry using the […] nephelometer (BMG LabTech, Ortenberg, Germany) and F-bottom transparent 96-well plates. The instrument uses red laser light (635 nm, 80% intensity), which passes through the 96-well plate and which is scattered by turbid suspensions. Each compound was measured six times at 25 °C by preparing three independent stock solutions in concentrations of 5 to 10 mM in DMSO. From each stock solution two independent dilution series were prepared. Based on preliminary experiments, dilution concentrations were chosen such that at least five to six concentrations below and above the expected point of precipitation were recorded. To the 96-well plate containing 198 μL aqueous phosphate buffer at pH 7.4, 2 μL of each dilution sample in DMSO was added and shaken for 10 s. at 700 rpm (double orbital). […] The pH was adjusted by adding sulfuric acid. First, the plates were scanned without content to quantify the background, which was later subtracted from the obtained values of each individual well. As blank, 2 μL of neat DMSO was added to the phosphate buffer. Close to the point of precipitation, particle concentration can be assumed to be proportional to the intensity of scattered light. […]

The target of the next series is T1, PfGSK-3 (Plasmodium falciparum, UniProt O77344).
T1 construct: 6xHis; made in house; host or cells: Escherichia coli C41
T1 sequence (O77344 1-440): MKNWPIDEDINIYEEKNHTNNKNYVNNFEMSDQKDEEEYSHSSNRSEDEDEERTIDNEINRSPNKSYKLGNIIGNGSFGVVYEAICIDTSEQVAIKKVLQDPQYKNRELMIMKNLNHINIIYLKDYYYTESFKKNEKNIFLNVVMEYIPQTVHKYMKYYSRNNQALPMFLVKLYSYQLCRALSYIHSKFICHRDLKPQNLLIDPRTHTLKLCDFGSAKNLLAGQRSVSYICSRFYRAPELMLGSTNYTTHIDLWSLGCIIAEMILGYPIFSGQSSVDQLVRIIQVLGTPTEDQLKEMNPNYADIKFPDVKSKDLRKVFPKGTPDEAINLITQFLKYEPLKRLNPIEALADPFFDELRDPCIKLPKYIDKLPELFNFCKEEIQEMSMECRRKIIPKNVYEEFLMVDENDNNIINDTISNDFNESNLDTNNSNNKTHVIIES
The series can be described thus: biochemical. The class given is biochemical. The protocol: PfGSK-3 was cloned into pOPIN F expression vector [41] using ligation independent cloning (InFusion, Takara Clontech). Expression vector was transformed into Escherichia coli C41 and expression of recombinant PfGSK3-6xHis was induced by incubation with 1 mM IPTG at 16 °C overnight.
Kinase activity was measured using Kinase-Glo Plus Luminescent Kinase Assay (Promega). 20 ng recombinant GSK-3 were incubated for 30 min at 30 °C in the presence of 12 μM GS-1 peptide substrate ([…]pSEDEEE, pS stands for phosphorylated serine, Biaffin GmbH & Co KG/proteinkinase.de) and 6 μM ATP (ultra pure, Promega) in a total volume of 5 μL kinase reaction buffer (40 mM Tris/HCl pH 7.5; 20 mM MgCl2; 0.1 mg/mL BSA). Kinase reaction mix was transferred to a solid white 384 well plate (NUNC, Thermo Scientific) and kinase reaction was stopped by adding 5 μL RT Kinase-Glo reagent. After 10 min luminescence was measured in an EnVision multilabel plate reader (Perkin Elmer, integration time 0.5 s/well). […] All samples were normalized to a negative control (reaction without kinase). Data points were plotted into Graphpad Prism, normalized to a DMSO control and IC50 values were calculated using nonlinear regression.

The term IC50 denotes the concentration that inhibits the measured activity by half.

Take `CN(C)CCN(C)c1ccc(-c2c(C#N)c(N)nc3sc(C(=O)c4cccc(Cl)c4)c(N)c23)c(Cl)c1` [4h]: in series [1] (3 µM test compound, luciferase readout, ± SD), the “% inhibition ± SD, PfNF54-Luc at 3 µM” value is reported as 99.9 ± 0.1%. Further, the IC50 in series [1] (from dose-response curves, read-out: IC50 [µM], PfNF54-Luc) worked out at 1.2 µM; in the series with HEK293T cells it was 5.56 µM; at PfGSK-3 (6 µM ATP, mean of three determinations, range in brackets, read-out: IC50 [µM], PfGSK-3 (Kinase Glo Plus)), 0.72 µM. Moreover, the “S0 pH 7.4, exp (kinetic solubility)” value in series [2] was found to be 4.8 ± 0.9 µM. Besides, at PfGSK-3 (Kinase Glo Plus assay, PfGSK-3 versus HsGSK-3), the “selectivity index plasmodial versus human GSK-3” value was found to be 56.

For the origin of these results see paper PMC6429710, “Structure–activity relationships in a series of antiplasmodial thieno[2,3-b]pyridines” (Malaria Journal, 2019).
